Here are results for four compounds from patent EP0323147A2, “1-Aralkyl-1,2-dihydropyrimidine-2-thiones” (SMITHKLINE BECKMAN CORPORATION, priority 1987, dated 1989).

The conditions of data set [1]: literature, Teresawa et al., Japan Cir. J. 35, 339 (1971); cited from earlier work.
The target in a further data set is T1, DBH (Homo sapiens, UniProt P09172).
T1 sequence (P09172 1-617): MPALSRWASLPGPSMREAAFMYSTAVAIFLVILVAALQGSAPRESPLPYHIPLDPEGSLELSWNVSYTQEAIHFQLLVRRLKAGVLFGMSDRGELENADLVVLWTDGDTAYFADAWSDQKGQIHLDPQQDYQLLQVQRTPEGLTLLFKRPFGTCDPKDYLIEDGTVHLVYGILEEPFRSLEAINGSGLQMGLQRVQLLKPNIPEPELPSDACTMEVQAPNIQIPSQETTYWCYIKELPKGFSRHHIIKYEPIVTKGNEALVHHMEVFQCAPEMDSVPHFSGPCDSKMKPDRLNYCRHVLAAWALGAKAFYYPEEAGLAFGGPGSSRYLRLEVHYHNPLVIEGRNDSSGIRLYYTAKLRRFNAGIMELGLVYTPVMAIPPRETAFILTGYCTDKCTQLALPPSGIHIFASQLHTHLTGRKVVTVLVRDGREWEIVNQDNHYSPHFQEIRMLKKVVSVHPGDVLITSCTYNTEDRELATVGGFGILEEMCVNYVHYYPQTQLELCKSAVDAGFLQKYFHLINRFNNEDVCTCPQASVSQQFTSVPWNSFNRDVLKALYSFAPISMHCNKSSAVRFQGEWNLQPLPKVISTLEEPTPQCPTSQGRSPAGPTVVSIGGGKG
Kind of data set: in vitro DBH inhibition, conversion of tyramine to octopamine in the presence of DBH. Type of data set: biochemical. The note with it: for percent inhibition: at 10⁻⁵ M compound concentration, IC₅₀ not determined. The method, then:
Because the compounds of structure (I) inhibit DBH activity they have therapeutic value as diuretic, natriuretic, cardiotonic, antihypertensive, and vasodilatoragents, as well as antiulcerogenic and anti-Parkinson agents. Listed in Table I are the compounds of the invention that were tested for in vitro DBH inhibition by a standard procedure for assaying conversion of tyramine to octopamine in the presence of DBH. J.J. Pisano, et al., Biochim. Biophys. Acta, 43, 566-568 (1960). Octopamine was assayed following sodium periodate oxidation to p-hydroxy-benzaldehyde by measuring spectrophotometric absorbance at 330 nm. In Table I, inhibition is given in micromolar concentration of compound at which DBH activity was halved (IC₅₀). […]

The test system of data set [2] is spontaneously hypertensive rats. As to the kind of experiment: mean arterial blood pressure in spontaneously hypertensive rats after oral dosing. Format: in vivo. The note with it: 50 mg/kg orally, compared to vehicle-treated controls. The method, then: Further, spontaneously hypertensive rats were treated with a suspension or solution of 1-(3,5-fluorobenzyl)-1,2,-dihydropyrimidine-2-thione hydrochloride at a dose of 50 mg/kg orally and mean arterial blood pressure was monitored for 260 minutes using indwelling cannulae in the tail arteries. […] Maximal blood pressure reduction was approximately 25 to 30 mm Hg.

Molecules are shown by their SMILES. Marks after values point to notes of the source that are not given here.

For `CCCCc1ccc(C(=O)O)nc1` [fusaric acid], the toxic effects entry in data set [1] was “hepatotoxic”.
Take `Cl.Fc1cccc(Cn2cccnc2=S)c1` [1-(3-Fluorobenzyl)-1,2-dihydropyrimidine 2-thione Hydrochloride]: the percent inhibition on DBH was found to be 15%^a.
The same measure, in the same setting: under `S=c1ncccn1Cc1ccccc1` [1-benzyl-1,2-dihydropyrimidine-2-thione, 1-Benzyl-1,2-dihydropyrimidine-2 thione] stands 5%^a.
For the compound `Cl.Fc1cc(F)cc(Cn2cccnc2=S)c1` [1-(3,5-Difluorobenzyl)-1,2-dihydropyrimidine 2-thione Hydrochloride], the IC50 on DBH (concentration of compound at which DBH activity was halved, read-out: DBH IC₅₀) was 2800 nM. Also, in data set [2], the “time after treatment to significant blood pressure reductions” value was at most 30 min.
